US6620967B1, “Ketosis-treating agent” (priority 1999, dated 2003)

System: Wistar male rats subjected to ketosis under starvation for 48 hours
Experiment: Effects at oral administration in rats subjected to ketosis under starvation
Type: in vivo, rat
Settings: oral (into the stomach), 1 or 2 mmol/kg-body weight, blood from tail vein up to 240 minutes after administration
Procedure: Wistar male rats of 6 to 8 week age were subjected to ketosis under starvation for 48 hours and then used for experiment. Each of glutamine, glutamic acid, valine, isoleucine and serine was dissolved in water for injection and administered into the stomach using a gastroconductor to give a dose of 1 or 2 mmol/kg-body weight. As controls, the same quantity of water for injection was similarly administered, or each of glucose and alanine was similarly administered to give a dose of 1 or 2 mmol/kg-body weight.
Before the administration, and 30, 60, 90, 120, 180 and 240 minutes after the administration, blood was collected from a tail vein and the concentration of glucose in blood and the concentration of 3-hydroxybutyric acid usually measured for diagnosis of ketosis were measured.
FIGS. 1 to 10 show changes of the concentrations of glucose and 3-hydroxybutyric acid in blood, which are expressed as rates of change from the values before the administration (FIG. 1: water for injection, FIG. 2: 1 mmol/kg of glucose, FIG. 3: 1 mmol/kg of alanine, FIG. 4: 2 mmol/kg of alanine, FIG. 5: 1 mmol/kg of glutamine, FIG. 6: 1 mmol/kg of glutamic acid, FIG. 7: 1 mmol/kg of valine, FIG. 8: 2 mmol/kg of valine, FIG. 9: 2 mmol/kg of isoleucine, FIG. 10: 2 mmol/kg of serine). In the figures, the symbols “-∘-” and “-▴-” correspond to the rates of change of 3-hydroxybutyric acid and glucose, respectively.
Furthermore, as shown in the figures, the effect on reduction of ketone bodies disappeared within about 4 hours when glucose was used. On the other hand, when glutamine, glutamic acid, valine or isoleucine was used, the period of effecting the reduction of the concentration of ketone bodies was expected to be 24 hours or more, and therefore, they were effective as ketosis-treating agents having long duration of the effect.

Structure (SMILES)	concentration of glucose in blood, change from value before administration	concentration of ketone bodies (3-hydroxybutyric acid) in blood, change from value before administration
CC[C@H](C)[C@H](N)C(=O)O [isoleucine]	without largely increasing the concentration of glucose in blood	reduced the concentration of ketone bodies
N[C@@H](CO)C(=O)O [serine]	without largely increasing the concentration of glucose in blood	reduced the concentration of ketone bodies
CC(C)[C@H](N)C(=O)O [valine]	without largely increasing the concentration of glucose in blood	reduced the concentration of ketone bodies
